Measurements reported in article PMC7306133 (Diabetes, 2020).
Where a SMILES comes first, the peptide text is derived from it. Where no end group is shown, it is not given here.

Legend:
[1] = system: HIP-specific T-cell clones; assay: Proliferation of HIP-specific T-cell clones in response to human islet fractions; type: cell-based; conditions: label = specificity of the clone; compared with the unpulsed control condition
[2] = system: CD4+ T cells in peripheral blood of subjects with T1D; assay: Ex vivo tetramer analysis of T-cell frequency; type: cell-based, human; conditions: DR0401 tetramers, ex vivo enrichment
[3] = target: HLA-DRB1*04:01 (DR0401) protein (Homo sapiens, UniProt P01903+P01911, A100K/A169T/F76Y/I96L/K127E/L162R/M171V/N62H/P40V/Q125Y/R42H/S133A/S149N/S66Y/V115G/V209L/W38E); assay: DR0401 peptide binding competition assay

Compound: CC[C@H](C)[C@H](N)C(=O)N[C@@H](CS)C(=O)N[C@@H](CO)C(=O)N[C@@H](CC(C)C)C(=O)N[C@@H](Cc1ccc(O)cc1)C(=O)N[C@@H](CCC(N)=O)C(=O)N[C@@H](CC(C)C)C(=O)N[C@@H](CCC(=O)O)C(=O)N[C@@H](Cc1ccccc1)C(=O)N[C@H](C(=O)N[C@@H](CC(N)=O)C(=O)N[C@@H](CCC(N)=O)C(=O)N[C@@H](Cc1c[nH]cn1)C(=O)N[C@@H](CC(C)C)C(=O)N[C@@H](CS)C(=O)NCC(=O)O)C(C)C [HIP-4.4] (H-ICSLYQLEFVNQHLCG-OH; N-terminus and C-terminus assumed)
- Proliferation of the HIP-reactive clone in response to human islets (in words) [1]: not above the unpulsed control condition
- Average frequency of HIP-reactive T cells [2]: 8 cells per million CD4+ T cells

Compound: CSLYQLENSVPHFSDE [HIP-4.39]
- IC50 [3]: 240 nM

Compound: VCGERGFFEELVARSE [HIP-4.1]
- IC50 [3]: 2800 nM

Compound: QPLALEGSALSSQHQA [HIP-4.40]
- IC50 [3]: 2400 nM

Compound: HLVEALYLEELVARSE [HIP-4.2]
- IC50 [3]: 440 nM

Compound: SLQKRGIVEELVARSE [HIP-4.18]
- IC50 [3]: 1800 nM
